{
  "source": "patent EP0219782A2",
  "about": "“Use of angiotensin-converting enzyme inhibitors in the treatment of atherosclerosis, thrombosis and peripheral vascular disease” (HOECHST AKTIENGESELLSCHAFT, priority 1985, dated 1987)",
  "key": {"Plättchenaggregation [1]": {"system": "Plättchenaggregation", "assay": "Chronic study: ex vivo platelet aggregation after 14 days of dosing in conscious rabbits", "set-up": "species or system Kaninchen", "details": "1 mg/kg/d for 14 days; found in all animals", "excerpt": "(§1) Plättchenreiches Kaninchenplasma wird wie von Born (Arzneimittel-Forsch. 31, 2012 (1981)) angegeben, gewonnen. Die Plättchenaggregation wird durch Erhöhung des Lichtdurchganges durch eine Küvette, die dieses Plasma enthält, gemessen. Die Plättchenzahl wird durch Verdünnung mit autologem, plättchenarmem Plasma auf 450000/mm^s eingestellt. […] Dagegen wird eine durch 4 pg/ml PGI2 bewirkte Aggregationshemmung gegen Arachidonsäure durch die Verbindung der Formel II in genannten Dosisbereich auf 100% gesteigert.\n(§2) Nach 1 Stunde werden die Tiere getötet und plättchenreiches Plasma gewonnen. Die Plättchenaggregation wird wie unter A) beschrieben bestimmt.\nWache Kaninchen erhielten 1 mg/kg/d der Verbindung der Formel II für 14 Tage, dann wurde wie unter 1) beschrieben weiter verfahren."}, "Plättchenaggregation [2]": {"system": "Plättchenaggregation", "assay": "Platelet aggregation in platelet-rich rabbit plasma in vitro (light transmission, Born)", "format": "cell-based, Kaninchen", "excerpt": "as §1"}, "Plättchenaggregation [3]": {"system": "Plättchenaggregation", "assay": "Acute study: ex vivo platelet aggregation after a single oral dose in conscious rabbits", "set-up": "species or system Kaninchen", "details": "single oral dose 1,0 - 10,0 mg/kg, plasma taken after 1 hour", "excerpt": "as §1\nWache Kaninchen erhielten eine einmalige orale Dosis von 1,0 - 10,0 mg/kg der Verbindung der Formel II.\nas §2"}},
  "data": [
    {"smiles": "CCOC(=O)[C@H](CCc1ccccc1)N[C@@H](C)C(=O)N1[C@H](C(=O)O)C[C@@H]2CCC[C@@H]21", "note": "[Formel II, N-(l-S-Carbethoxy-3-phenyl-propyl)-S-alanyl-cis-endo-2-azabicyclo[3.3.0]octan-3-S-carbonsäure]", "values": [
      {"measurement": "durch ADP ausgelöste Plättchenaggregation", "setting": "Plättchenaggregation [1]", "result": "ausgeprägte Inhibierung"},
      {"measurement": "durch Arachidonsäure ausgelöste Plättchenaggregation", "setting": "Plättchenaggregation [1]", "result": "ausgeprägte Inhibierung"},
      {"measurement": "durch PGI2 bewirkte Aggregationshemmung gegen Arachidonsäure, gesteigert auf", "setting": "Plättchenaggregation [2]; 4 pg/ml PGI2, compound at 0.1-10 pg/ml Plasma", "result": 100, "unit": "%"},
      {"measurement": "Einfluß auf die durch Kollagen ausgelöste Aggregation", "setting": "Plättchenaggregation [2]; 0.1-10 pg/ml Plasma, stimulus 4 pg/ml Kollagen", "result": "keinen Einfluß"},
      {"measurement": "Einfluß auf die durch Arachidonsäure ausgelöste Aggregation", "setting": "Plättchenaggregation [2]; 0.1-10 pg/ml Plasma, stimulus 0.24 mmol/1 Arachidonsäure", "result": "keinen Einfluß"},
      {"measurement": "Einfluß auf die durch ADP ausgelöste Aggregation", "setting": "Plättchenaggregation [2]; 0.1-10 pg/ml Plasma, stimulus 5 mmol/1 ADP", "result": "keinen Einfluß"},
      {"measurement": "Aggregation gegenüber ADP", "setting": "Plättchenaggregation [3]", "result": "vermindert"},
      {"measurement": "Aggregation gegenüber Kollagen", "setting": "Plättchenaggregation [3]", "result": "vermindert"},
      {"measurement": "Potenzierung der PGI2-Wirkung", "setting": "Plättchenaggregation [3]", "result": "ebenfalls beobachtet"},
      {"measurement": "Aggregation gegenüber Arachidonsäure", "setting": "Plättchenaggregation [3]; effect especially against Arachidonsäure", "result": "vermindert"}
    ]}
  ]
}
